The target in the assay is T1, 5-HT3 receptor (Rattus norvegicus, UniProt P35563).
T1 construct: from tissue; host or cells: whole living rat (male Wistar, urethane-anesthetized); endogenous receptor
T1 sequence (P35563 24-483): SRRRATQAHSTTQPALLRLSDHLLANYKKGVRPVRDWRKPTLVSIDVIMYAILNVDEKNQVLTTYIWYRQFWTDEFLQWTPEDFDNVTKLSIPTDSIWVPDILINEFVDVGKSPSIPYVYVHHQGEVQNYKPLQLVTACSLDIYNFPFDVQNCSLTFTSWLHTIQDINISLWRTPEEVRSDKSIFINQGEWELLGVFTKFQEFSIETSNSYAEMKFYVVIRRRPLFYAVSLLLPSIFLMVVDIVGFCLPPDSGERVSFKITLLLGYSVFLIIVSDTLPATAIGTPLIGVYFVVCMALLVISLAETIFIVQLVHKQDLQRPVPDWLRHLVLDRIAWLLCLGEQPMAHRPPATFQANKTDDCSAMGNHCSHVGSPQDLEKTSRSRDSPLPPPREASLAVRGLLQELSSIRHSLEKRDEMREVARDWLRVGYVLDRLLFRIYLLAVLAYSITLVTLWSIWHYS
Put plainly: Inhibitory effect on the Bezold-Jarish's reflex induced in anesthetized rats with 5-HT (5HT3 receptor antagonistic effect). It counts as in vivo, rat (male Wister strain). The following applies: iv, i.v. test compound, 5-HT 8 μg/kg i.v., urethane-anesthetized male Wister rats, dose giving 50% inhibition, read-out: B-J Reflex Inhibition (ID50). Here is the method:
1) 5HT3 Receptor Antagonistic Effect
The antagonistic activity of the compounds of the invention to 5-HT3 receptor was evaluated as to the inhibitory effect on the Bezold-Jarish's reflex induced in anesthetized rats with 5-HT as follows.
Male Wister strain rats (300-400 g weight) were anesthetized by peritoneal injection of urethane (1.25 g/kg) and the heart rate was monitored from an electrocardiograph. Rats were intravenously injected with physiological saline (0.5 ml/kg) and 5-HT (8 μg/kg) solution (0.5 ml/kg) in physiological saline at five minutes interval and the change in the heart rate was recorded (A). Another group of rats were intravenously injected with a test compound and 5-HT solution in the same manner as the above at five minutes interval and the change in the heart rate was recorded (B). The percent inhibition of 5-HT-induced Bezold-Jarish's reflex was calculated as follows.
Inhibition (%)=(1-B/A)×100
In the Table, ID50 is a dose of a compound (I) of the invention which gives a 50% inhibition. The compound number in Table 4 correspond to those in Tables 1-3.

Structures can show the parent of a compound that is named as a salt.

For `CCn1nc(C(=O)NC2CC3CCC(C2)N3C)c(=O)c2ccccc21` (stereo not drawn) [Compound 76, N-(endo-8-methyl-8-azabicyclo[3.2.1]oct-3yl)-1-ethyl-1,4-dihydro-4-oxocinnoline-3-carboxamide hydrochloride], the ED50 was found to be 0.3 µg/kg.

As to `CCCn1nc(C(=O)NC2CC3CCC(C2)N3C)c(=O)c2ccccc21` (stereo not drawn) [Compound 86, N-(endo-8-methyl-8-azabicyclo[3.2.1]oct-3-yl)-1-propyl-1,4-dihydro-4-oxocinnoline-3-carboxamide hydrochloride], the ED50 was 0.15 µg/kg.

`CCCn1nc(C(=O)NC2CC3CCC(C2)N3C)c(=O)c2cccc(F)c21` (stereo not drawn) [Compound 102, 8-Fluoro-N-(endo-8-methyl-8-azabicyclo[3.2.1]oct-3-yl)-1-propyl-1,4-dihydro-4-oxocinnoline-3-carboxamide hydrochloride]: the ED50 was determined as 0.2 µg/kg.

These data come from patent US5391549A, “Cinnoline-3-carboxylic acid derivatives” (Mitsubishi Kasei Corporation, priority 1992, dated 1995).
